Measurements from paper PMC10650714, “Double Attack to Oxidative Stress in Neurodegenerative Disorders: MAO-B and Nrf2 as Elected Targets” (Molecules, 2023).
Values joined by “and” are separate entries in the source; they are usually repeats but may differ in a detail not shown here. Equal values may be shown once. Read-outs that look alike come from different tables or passages of the source.

How the values were obtained:
recombinant hMAO-B = target: T1, recombinant hMAO-B (Homo sapiens, UniProt P27338); assay: hMAO-B activity assay (kynuramine, fluorimetric); assay type: biochemical; settings: for SI (selectivity index): calculated as hMAO-A Ki/hMAO-B Ki; for mechanism of hMAO-B inhibition: double reciprocal plots / global fit
T1 construct: purchased Fluka-Sigma-Aldrich s.r.l; (Italy); host or cells: Baculovirus infected BT1 cells
T1 sequence (P27338 1-520): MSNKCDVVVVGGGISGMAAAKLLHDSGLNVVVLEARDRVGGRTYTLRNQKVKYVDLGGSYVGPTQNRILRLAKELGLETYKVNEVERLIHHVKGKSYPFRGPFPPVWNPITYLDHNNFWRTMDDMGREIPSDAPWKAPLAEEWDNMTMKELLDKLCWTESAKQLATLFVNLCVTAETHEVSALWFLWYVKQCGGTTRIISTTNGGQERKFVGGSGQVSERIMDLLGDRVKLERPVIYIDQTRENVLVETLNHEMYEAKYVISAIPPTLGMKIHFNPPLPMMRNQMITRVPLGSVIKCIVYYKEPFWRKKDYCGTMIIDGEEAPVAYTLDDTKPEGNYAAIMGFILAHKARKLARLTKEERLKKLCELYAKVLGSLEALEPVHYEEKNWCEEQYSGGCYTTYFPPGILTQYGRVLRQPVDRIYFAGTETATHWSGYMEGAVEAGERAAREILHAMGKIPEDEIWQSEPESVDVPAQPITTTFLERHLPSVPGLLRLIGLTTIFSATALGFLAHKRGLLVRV
Description: (§1) Human recombinant hMAO-A and hMAO-B expressed in Baculovirus infected BT1 cells (5 mg/mL) and horseradish peroxidases were purchased from Fluka-Sigma-Aldrich s.r.l. (Italy). A Cary Eclipse fluorimeter (Varian Inc., Palo Alto, CA, USA) was used for fluorescence measurements. […] At first, the peroxidase-coupled continuous assay that detect the H2O2 generation rate was considered. It uses the Amplex Red reagent as the fluorogenic substrate for horseradish peroxidase.
(§2) By applying this method, hMAO activity assays were performed in K/Pi 0.1 M, EDTA 1 mM (total volume: 200 μL; pH 7.4, T = 37 °C), in the presence and in absence of various concentrations of the different compounds (0.2–20 μM and 2–50 μM in the case of hMAO–B and hMAO-A, respectively).
(§3) MAOs stock solutions were diluted with assay buffer in the presence or absence of the tested compound to obtain a final concentration of 0.005 mg/mL for MAO-A and 0.010 mg/mL for MAO-B; then, kynuramine (10–300 μM final concentration) was added to the assay solution. After 45–60 min of incubation at 37 °C, the reaction was stopped by the addition of 2 M NaOH (80 μL) and 480 μL of distilled water. Kynuramine deaminated by MAO spontaneously cyclizes to provide 4-hydroxyquinoline, the amount of which was determined by the fluorescence intensity of the peak of its emission spectra (λexc = 330 nm and λem 330–530 nm). Then, the rate of reaction was calculated using a specific calibration curve (in the presence of the same amount of the tested compound) built with the standard 4-hydroxyquinoline.
(§4) Under these experimental conditions, the Michaelis–Menten equation for rate of reaction, can be simplified as follows: V ≈ (Vmax/KM) [E]0[S]0 [49]. In the presence of an inhibitor, one or both the kinetic parameters, KM and Vmax, might be affected by its presence, depending on the inhibition mechanism. In particular, in the presence of a reversible inhibitor, both the kinetic parameters could be affected, and the apparent kinetic parameter would then become: KM I = KM,0 (1 + [I]/Ki)/(1 + [I]/(αKi)), and VmaxI = Vmax0/(1 + [I]/(αKi)), where α is the factor indicating how much the dissociation constant of the enzyme-substrate-I complex is different from that of the enzyme–I complex (also named Ki). Consequently, the ratio of the initial rate of reaction in the absence (Vo) and in the presence (VI) of the tested compound (Vo/VI) can be simplified to the ratio of (Vmax/KM)o/(Vmax/KM)I ≈ (1 + [I]/Ki).
(§5) To study the mechanism of inhibition, the steady-state kinetic parameters (Vmax and Km) of MAO-A and MAO-B were determined by performing experiments at different substrate concentrations and in the absence and presence of different concentrations of the tested compound. Vmax and Km were calculated by fitting the Michaelis–Menten equation to the experimental data (initial rate of reactions vs. substrate concentrations), with Sigma Plot software, version 9.0 (Jandel Scientific, San Rafael, CA, USA).

recombinant hMAO-A = target: T2, recombinant hMAO-A (Homo sapiens, UniProt P21397); assay: hMAO-A activity assay (kynuramine, fluorimetric); assay type: biochemical
T2 construct: purchased Fluka-Sigma-Aldrich s.r.l; (Italy); host or cells: Baculovirus infected BT1 cells
T2 sequence (P21397 1-527): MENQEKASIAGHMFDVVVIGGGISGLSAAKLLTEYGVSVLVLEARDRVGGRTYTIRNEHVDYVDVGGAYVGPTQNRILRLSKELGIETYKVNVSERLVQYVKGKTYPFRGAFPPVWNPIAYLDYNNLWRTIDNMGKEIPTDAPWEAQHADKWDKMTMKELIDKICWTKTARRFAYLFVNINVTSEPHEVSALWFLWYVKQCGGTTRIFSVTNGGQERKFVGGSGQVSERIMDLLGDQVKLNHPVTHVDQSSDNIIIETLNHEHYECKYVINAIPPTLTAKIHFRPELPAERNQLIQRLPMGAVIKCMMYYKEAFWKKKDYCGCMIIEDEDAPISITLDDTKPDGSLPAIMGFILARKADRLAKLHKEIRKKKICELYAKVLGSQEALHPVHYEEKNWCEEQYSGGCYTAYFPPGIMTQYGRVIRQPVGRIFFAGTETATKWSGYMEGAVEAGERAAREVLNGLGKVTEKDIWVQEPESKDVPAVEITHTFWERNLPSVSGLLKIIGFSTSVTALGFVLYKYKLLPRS
Description: as §1, §2, §3, §4, §5

[1] = test system: SH-SY5Y human neuroblastoma cells; assay: Cell viability, MTT assay; assay type: cell-based; settings: 0.5 to 50 μM, 24 h
Description: To define the concentration range to use in the in vitro experimental settings, the cytotoxicity of compounds 1–5 was evaluated in SH-SY5Y human neuroblastoma cells, in comparison with CAPE, the reference compound for Nrf2 activation (Figure 5). Cells were treated with compounds at concentrations ranging from 0.5 to 50 μM for 24 h and cell viability was evaluated via MTT assay. All compounds were well tolerated at each concentration, resulting in no or very low reduction in cell viability.
MTT assay, based on the mitochondrial dehydrogenase activity that reduces 3-(4,5-dimethylthiazol-2-yl)-2,5-diphenyl-tetrazolium bromide (MTT, Sigma, St Louis, MO, USA) is one of the standard assays used to measure the cellular metabolic activity as an indicator of cell viability, proliferation and cytotoxicity in a quantitative colorimetric assay. At day 0, SH-SY5Y cells were plated at a density of 2.5 × 10^4 viable cells per well in 96-well plates. After treatment, according to the experimental setting, cells were exposed to an MTT solution in serum-free medium (1 mg/mL). Following 4 h of incubation with MTT and treatment with SDS for 24 h, cell viability reduction was quantified by using a Synergy HT multidetection microplate reader (Bio-Tek).

[2] = kynuramine [S] = 10 µM, pH 7.4, 37 °C, mean ± S.D., read-out: hMAO-A Ki

Row | mechanism of hMAO-B inhibition (recombinant hMAO-B) | Ki (recombinant hMAO-A; [2]) | Ki (recombinant hMAO-B; global fit analysis, mixed inhibition model, read-out: KEI (inhibition constant for the free enzyme)) | Ki (recombinant hMAO-B; kynuramine [S] = 10 µM, pH 7.4, 37 °C, mean ± S.D., read-out: hMAO-B Ki) | Ki (recombinant hMAO-B; read-out: hMAO-B Ki) | Compound | SI (selectivity index) (recombinant hMAO-B) | Ki (recombinant hMAO-B; hMAO-B Ki, kynuramine [S] = 10 µM, pH 7.4, 37 °C, mean ± S.D.) | Ki (recombinant hMAO-A) | cell viability / cytotoxicity [1]
1 | – | – | – | – | – | O=C(/C=C/c1ccc(O)c(O)c1)OCCc1ccccc1 [CAPE, caffeic acid phenethyl ester, reference compound] | 6.7 | 1800 ± 200 nM | 12000 ± 2000 nM | –
2 | selective and competitive inhibitor | > 100000 nM | – | – | – | CCc1ccc(CCOc2ccc(CC3SC(=O)NC3=O)cc2)nc1 (stereo not drawn) [Pioglitazone, reference compound] | – | – | – | –
3 | mixed inhibition | 35000 ± 4000 nM | 450 ± 800 nM | 500 nM and 530 nM | 530 nM | O=C(/C=C/c1ccc(O)c(O)c1)Oc1ccc(CC2SC(=O)NC2=O)cc1 (stereo not drawn) [Compound 2, 4-((2,4-Dioxothiazolidin-5-yl)methyl)phenyl (E)-3-(3,4-Dihydroxyphenyl)acrylate] | 66 | – | – | not cytotoxic
